Earlier results on two molecules are cited in patent publication US20150258078A1 (priority 2014, published 2015).

Read-outs that look alike come from different tables or passages of the source.

The subject of data set [1] is type 2 diabetic and nondiabetic subjects. The settings on record: 61.4 micromol/day for 28 days; for VLDL, mean of absolute differences between 0 and 28 day treatment +/- S.E.M. / triacylglycerol, mean of absolute differences between 0 and 28 day treatment +/- S.E.M.: plasma.
Data set [2] relates to male inbred BHE (IN-BHE) rats. The settings on record: after the injection of 300 µg.
For data set [3], the system named is patients with elevated cholesterol and triglycerides. The settings on record: multiple clinical trials; daily intakes 600 to 1200 mg/day.

As to `O=C(O)CCCC[C@@H]1SC[C@@H]2NC(=O)N[C@@H]21` [Biotin], the “VLDL, mean of absolute differences between 0 and 28 day treatment +/- S.E.M.” value in data set [1] (diabetic group) was −0.11+/−0.04; in data set [1] (nondiabetic group) it was −0.18+/−0.07. Besides, the “triacylglycerol, mean of absolute differences between 0 and 28 day treatment +/- S.E.M.” value in data set [1] (diabetic group) is −0.55+/−0.2; in data set [1] (nondiabetic group) it was −0.92+/−0.36. Moreover, the “cholesterol, glucose and insulin” value in data set [1] (diabetic or nondiabetic subjects) was “no significant effects”. For the same molecule, in data set [2], the “plasma levels of lactate and pyruvate” value is “fell”.
On to Pantethine, for which, in data set [3], the HDL cholesterol increased is given as 9%, the total cholesterol decreased is given as 12% and the triglycerides decreased was 18%.
